Laboratory results from patent publication US20260364184A1, “COMPOUND BASED ON OXOISOINDOLINYL-SUBSTITUTED TETRAHYDROPYRIMIDINE-DIONE AND USE THEREOF” (GLUETACS THERAPEUTICS (SHANGHAI) CO., LTD., priority 2023, published 2026).

Legend:
[1] = system: Human Acute T Lymphoblastic Leukemia Cells (Molt-4); experiment: Inhibition of Molt-4 cell proliferation (CellTiter luminescent viability); assay type: cell-based; conditions: for IC50: Table IE1, CDK4/6 inhibitor-based, Molt-4, 96 hours, read-out: Inhibitory activity (IC50, nM) on tumor cell proliferation, Molt-4
[2] = system: Human acute lymphocytic leukemia T lymphocytes cell line (CCRF-CEM); experiment: Inhibition of CCRF-CEM cell proliferation (CellTiter luminescent viability); assay type: cell-based; conditions: for IC50: Table IE1, CDK4/6 inhibitor-based, 96 hours, read-out: Inhibitory activity (IC50, nM) on tumor cell proliferation, CCRF-CEM
[3] = system: Human prostate cancer cell line (NCI-H358); experiment: Inhibition of NCI-H358 cell proliferation (CellTiter luminescent viability); conditions: Table IH1, BCL-2 inhibitor-based, 96 hours
Experimental: (§1) The tumor cells used herein were cultured in a cell culture medium listed in table 3 at 37 °C in an incubator with 5% CO2. Prior to experimentation, all cell lines used were correctly identified by STR profiling, and tested negative for mycoplasma contamination using a mycoplasma detection kit through routine screenings.
(§2) The IC50 values of the compounds of the present disclosure (including the compounds in Table 1, Table 2, and Examples 1-468) were determined using the CellTiter-Meiluncell Luminescent Cell Viability Assay Kit from Dalian Meilun Biotech Co., Ltd. The detailed procedure is as follows: Tumor cells were seeded in 96-well cell culture plates at the densities specified in Table 4. On the following day, the test compounds of the present disclosure were subjected to serial dilution. The dilution can be performed according to one of the following two methods: • (1) The first dilution method: The test compounds of the present disclosure (including the compounds in Table 1, Table 2, and Examples 1-468) were subjected to 5-fold serial dilutions starting from a highest concentration of 2000 μM, resulting in a total of 9 concentrations from high to low (2000, 400, 80, 16, 3.2, 0.64, 0.128, 0.0256, 0.00512 μM). Subsequently, 0.5 μL of the test compound dilution was transferred into the 96-well plate containing the cells, with each well containing 100 μL of cell culture medium. […] Into the 96-well plate, the diluted test compounds and corresponding detection reagents were added, resulting in final test compound concentrations of 500 nM and 10 nM, respectively. The experimental procedure is described below using the diluted 2 μM test compound as an example.
(§3) 0.5 μL of the aforementioned diluted compound of the present disclosure (including the compounds in Table 1, Table 2, and Examples 1-468) was added to the seeded cells in 100 μL of medium, yielding a final test compound concentration of 10 nM. After the cells were treated with the compounds of the present disclosure for a specified period, the cell viability assay reagent was added to the culture medium according to the kit's instructions to determine cell viability. […] All controls were treated using the same procedure as the compounds of the present disclosure. The growth inhibition curves for the compounds of the present disclosure were plotted using Prism GraphPad software, and the IC50 values were calculated therefrom.

[4] = target: T1, BCL-2 (Homo sapiens, UniProt P10415); experiment: Western blot degradation of BCL-2; assay type: cell-based; conditions: Molt-4 Cell; 24 hours
T1 construct: expression of target proteins in cells; endogenous in cells
T1 sequence (P10415 whole entry): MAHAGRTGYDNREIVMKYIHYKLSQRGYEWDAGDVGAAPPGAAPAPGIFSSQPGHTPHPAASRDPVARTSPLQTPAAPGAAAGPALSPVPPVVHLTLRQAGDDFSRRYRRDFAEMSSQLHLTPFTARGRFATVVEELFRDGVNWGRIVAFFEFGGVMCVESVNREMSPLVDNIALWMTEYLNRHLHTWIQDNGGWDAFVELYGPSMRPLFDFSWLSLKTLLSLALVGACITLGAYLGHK
Experimental: Conventional Western blot assay was performed to evaluate the effects of the compounds of the present disclosure on the expression of target proteins in cells.
(1) Cell Seeding and Protein Harvesting: The selected cells were processed according to the cell seeding procedure and protein harvesting procedure in Table II-2.
(2) To the collected supernatant, 5×SDS sample loading buffer was added, followed by denaturation at 95 °C for 5 minutes. The denatured samples were then separated by SDS-PAGE electrophoresis on a polyacrylamide gel. Proteins were transferred to a nitrocellulose membrane (0.45 μm NC membrane), blocked with blocking buffer at room temperature for 1 hour, and subjected to antibody incubation and development procedures according to the antibody manufacturer's instructions (Cell Signaling Technology).
Half-Maximal Degradation Concentration value (the drug concentration required for degrading proteins by 50%, abbreviated as DC50) reads method: comparing the grayscale values of Western blot bands from drug-treated samples with those from blank DMSO-treated controls, and identifying the drug concentration range at which the grayscale value is half that of the DMSO-treated control bands.
DC50 values can be calculated using ImageJ software to measure grayscale values of Western blot bands from drug-treated samples. The concentration-response curve is fitted to estimate the drug concentration corresponding to half the grayscale value.
Target protein remaining (%) refers to the percentage of target protein remaining in cells after treatment with protein degrader compounds.
Calculation method for target protein remaining (%): Use ImageJ software to measure grayscale values of Western blot bands from drug (protein degrader)-treated samples. The grayscale value of drug-treated bands is divided by that of internal control protein bands, and the resulting quotient is normalized to obtain the relative percentage of remaining target protein after protein degrader treatment.
Target protein degradation rate (%)=1−target protein remaining (%).

[5] = system: Human large cell immunoblastic lymphoma cell line SR; experiment: Inhibition of SR cell proliferation (CellTiter luminescent viability); assay type: cell-based; conditions: Table IE1, CDK4/6 inhibitor-based, 96 hours, read-out: Inhibitory activity (IC50, nM) on tumor cell proliferation, SR
Procedure, shortened: (§4)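 Cells are seeded in 96-well plates, cultured at 37 °C, 5% CO2, and treated next day with 5-fold serial compound dilutions (stock series from 2000 μM; 0.5 μL into 100 μL medium). Viability is read by CellTiter-Meiluncell luminescence after the set exposure, and IC50 is taken from growth-inhibition curves.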

[6] = system: Human myeloid monocytic leukemia cell line (MV-4-11); experiment: Inhibition of MV-4-11 cell proliferation (CellTiter luminescent viability); assay type: cell-based; conditions: for IC50: Table IE1, CDK4/6 inhibitor-based, MV-4-11, 96 hours, read-out: Inhibitory activity (IC50, nM) on tumor cell proliferation, MV-4-11
Procedure, shortened: as §4

[7] = system: Human breast cancer cell line MCF-7; experiment: Inhibition of MCF-7 cell proliferation (CellTiter luminescent viability); conditions: Table IE1, CDK4/6 inhibitor-based; MCF-7, 96 hours; read-out: Inhibitory activity (IC50, nM) on tumor cell proliferation, MCF-7
Experimental: as §1, §2, §3

[8] = target: T2, CDK4 (Homo sapiens, UniProt P11802+Q96SW2); experiment: Western blot degradation of CDK4; assay type: cell-based; conditions: MDA-MB-231 Cell; 24 hours
T2 construct: expression of target proteins in cells; endogenous in cells
T2 sequence (P11802 whole entry): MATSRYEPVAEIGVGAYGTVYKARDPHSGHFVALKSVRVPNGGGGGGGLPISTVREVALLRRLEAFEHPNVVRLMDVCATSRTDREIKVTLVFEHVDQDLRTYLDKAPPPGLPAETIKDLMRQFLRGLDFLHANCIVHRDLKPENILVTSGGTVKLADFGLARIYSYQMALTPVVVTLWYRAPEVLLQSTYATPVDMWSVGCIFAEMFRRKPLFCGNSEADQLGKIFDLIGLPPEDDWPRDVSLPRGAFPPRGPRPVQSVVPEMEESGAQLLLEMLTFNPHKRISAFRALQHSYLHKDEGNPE
T2 sequence (Q96SW2 whole entry): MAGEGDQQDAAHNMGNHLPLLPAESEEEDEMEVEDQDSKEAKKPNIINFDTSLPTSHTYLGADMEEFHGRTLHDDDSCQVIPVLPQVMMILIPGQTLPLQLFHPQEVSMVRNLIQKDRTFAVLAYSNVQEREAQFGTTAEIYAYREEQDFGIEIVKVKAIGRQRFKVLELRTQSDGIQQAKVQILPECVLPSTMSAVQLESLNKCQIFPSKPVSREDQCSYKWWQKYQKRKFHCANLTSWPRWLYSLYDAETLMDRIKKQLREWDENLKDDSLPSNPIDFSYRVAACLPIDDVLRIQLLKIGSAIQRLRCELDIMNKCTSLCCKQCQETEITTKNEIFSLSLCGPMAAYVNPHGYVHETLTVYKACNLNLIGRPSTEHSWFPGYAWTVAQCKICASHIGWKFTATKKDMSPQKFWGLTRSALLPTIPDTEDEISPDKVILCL
T2 sequence (Q16531 whole entry partner): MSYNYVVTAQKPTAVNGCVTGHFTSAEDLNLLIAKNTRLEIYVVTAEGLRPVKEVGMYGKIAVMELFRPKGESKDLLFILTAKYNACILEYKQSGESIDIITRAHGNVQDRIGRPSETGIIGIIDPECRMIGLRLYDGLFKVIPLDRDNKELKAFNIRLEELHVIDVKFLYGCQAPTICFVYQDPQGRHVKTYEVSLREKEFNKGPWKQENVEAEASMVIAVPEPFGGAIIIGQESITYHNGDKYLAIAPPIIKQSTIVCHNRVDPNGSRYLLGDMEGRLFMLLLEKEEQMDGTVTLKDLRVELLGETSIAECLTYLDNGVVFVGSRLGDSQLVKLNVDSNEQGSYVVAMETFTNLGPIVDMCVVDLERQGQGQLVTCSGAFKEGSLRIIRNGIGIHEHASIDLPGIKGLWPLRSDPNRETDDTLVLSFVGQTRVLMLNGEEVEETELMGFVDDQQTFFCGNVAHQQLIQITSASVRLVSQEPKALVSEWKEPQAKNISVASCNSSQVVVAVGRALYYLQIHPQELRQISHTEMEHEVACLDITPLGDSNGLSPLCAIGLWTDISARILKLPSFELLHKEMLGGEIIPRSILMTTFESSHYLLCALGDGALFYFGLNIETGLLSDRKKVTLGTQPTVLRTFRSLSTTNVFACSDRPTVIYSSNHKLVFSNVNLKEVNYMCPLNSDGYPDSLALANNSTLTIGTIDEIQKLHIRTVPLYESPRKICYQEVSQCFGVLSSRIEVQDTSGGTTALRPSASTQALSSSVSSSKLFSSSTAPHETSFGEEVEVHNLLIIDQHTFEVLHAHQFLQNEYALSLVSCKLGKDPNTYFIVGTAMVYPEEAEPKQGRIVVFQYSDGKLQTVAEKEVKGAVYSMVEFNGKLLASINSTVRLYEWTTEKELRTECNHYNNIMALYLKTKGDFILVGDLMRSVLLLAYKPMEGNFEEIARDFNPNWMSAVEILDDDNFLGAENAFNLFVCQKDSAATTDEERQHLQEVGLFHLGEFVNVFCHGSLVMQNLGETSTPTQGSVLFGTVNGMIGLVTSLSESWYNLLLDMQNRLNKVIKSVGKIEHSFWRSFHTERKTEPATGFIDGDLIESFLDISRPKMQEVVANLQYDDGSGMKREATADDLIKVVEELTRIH
Procedure, shortened: (§5)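 Immunoblot of drug-treated versus DMSO-treated cell lysates, with densitometric quantification. Values: DC50 (50% band loss, fitted) and loading-control-normalised % remaining or degradation.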

[9] = target: T3, CDK6 (Homo sapiens, UniProt Q00534+Q96SW2); experiment: Western blot degradation of CDK6; assay type: cell-based; conditions: MDA-MB-231 Cell; 24 hours
T3 construct: expression of target proteins in cells; endogenous in cells
T3 sequence (Q00534 whole entry): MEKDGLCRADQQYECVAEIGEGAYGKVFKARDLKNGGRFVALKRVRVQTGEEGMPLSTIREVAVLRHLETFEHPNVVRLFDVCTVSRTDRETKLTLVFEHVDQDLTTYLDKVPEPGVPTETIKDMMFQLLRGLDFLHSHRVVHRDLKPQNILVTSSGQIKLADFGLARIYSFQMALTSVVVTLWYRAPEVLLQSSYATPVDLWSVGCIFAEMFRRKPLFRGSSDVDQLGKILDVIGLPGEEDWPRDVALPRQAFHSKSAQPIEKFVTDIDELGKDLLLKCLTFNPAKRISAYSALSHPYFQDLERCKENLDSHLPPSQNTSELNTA
T3 sequence (Q96SW2 whole entry): as the sequence (Q96SW2 whole entry) above
T3 sequence (Q16531 whole entry partner): as the sequence (Q16531 whole entry partner) above
Procedure, shortened: as §5

Row | Compound | inhibition at 0.01 µM ([1]; Homo sapiens, MOLT-4, 96 h, Table IH3, BCL-2 inhibitor-based, Molt-4, 10 nM, 96 hours, read-out: Inhibition Rate at 10 nM (%)) | inhibition at 0.5 µM ([1]; Homo sapiens, MOLT-4, 96 h, Table IH3, BCL-2 inhibitor-based, Molt-4, 500 nM, 96 hours, read-out: Inhibition Rate at 500 nM (%)) | inhibition at 0.01 µM ([2]; Homo sapiens, 96 h, Table IH2, BCL-2 inhibitor-based, 10 nM, read-out: Inhibition Rate at 10 nM (%)) | inhibition at 0.5 µM ([2]; Homo sapiens, 96 h, Table IH2, BCL-2 inhibitor-based, 500 nM, read-out: Inhibition Rate at 500 nM (%)) | inhibition at 0.01 µM ([3]; NCI-H358, 10 nM, read-out: Inhibition Rate at 10 nM (%)) | inhibition at 0.5 µM ([3]; NCI-H358, 500 nM, read-out: Inhibition Rate at 500 nM (%)) | Degradation of substrate protein BCL-2 (substrate protein remaining %) [4] | IC50 [5] | IC50 [1] | IC50 [6] | IC50 [2] | IC50 [7] | Degradation of substrate protein CDK4 (substrate protein remaining %) [8] | Degradation of substrate protein CDK6 (substrate protein remaining %) [9] | Inhibition Rate at 10 nM (%) ([6]; Table IE3, CDK4/6 inhibitor-based, MV-4-11, 10 nM, 96 hours) | Inhibition Rate at 500 nM (%) ([6]; Table IE3, CDK4/6 inhibitor-based, MV-4-11, 500 nM, 96 hours)
1 | CC1(C)CCC(c2ccc(Cl)cc2)=C(CN2CCN(c3ccc(C(=O)NS(=O)(=O)c4ccc(N[C@H](CCN5C[C@H]6C[C@@H]5CN6Cc5ccc6c(c5)CN(N5CCC(=O)NC5=O)C6=O)CSc5ccccc5)c(S(=O)(=O)C(F)(F)F)c4)cc3)CC2)C1 [GT-07812, 4-(4-((4′-chloro-4,4-dimethyl-3,4,5,6-tetrahydro-[1,1′-biphenyl]-2-yl)methyl)piperazin-1-yl)-N-((4-(((R)-4-((1R,4R)-5-((2-(2,4-dioxotetrahydropyrimidin-1(2H)-yl)-1-oxoisoindolin-5-yl)methyl)-2,5-diazabicyclo[2.2.1]heptan-2-yl)-1-(phenylthio)butan-2-yl)amino)-3-((trifluoromethyl)sulfonyl)phenyl)sulfonyl)benzamide] | 50 to 60% | 80 to 100% | 20 to 30% | 80 to 100% | 30 to 40% | 50 to 60% | A (0%≤substrate protein remaining %≤80%) |  |  |  |  |  |  |  |  | 
2 | Cc1nc2c(F)cc(-c3nc(Nc4ccc(N5CCC(N(C)Cc6ccc7c(c6)CN(N6CCC(=O)NC6=O)C7=O)CC5)cn4)ncc3F)cc2n1C(C)C [GT-06837, 1-(5-(((1-(6-((5-fluoro-4-(4-fluoro-1-isopropyl-2-methyl-1H-benzo[d]imidazol-6-yl)pyrimidin-2-yl)amino)pyridin-3-yl)piperidin-4-yl)(methyl)amino)methyl)-1-oxoisoindolin-2-yl)dihydropyrimidine-2,4 (1H,3H)-dione] |  |  |  |  |  |  |  | 10 to 50 nM | 100 to 300 nM | 10 to 50 nM | 100 to 300 nM | 100 to 300 nM | A (0%≤substrate protein remaining %≤80%) | A (0%≤substrate protein remaining %≤80%) |  | 
3 | CN(C)C(=O)c1cc2cnc(Nc3ccc(N4CCNCC4)cn3)nc2n1C1CCCC1 [Ribociclib, reference compound] |  |  |  |  |  |  |  | 5000 to 10000 nM | > 10000 nM | 5000 to 10000 nM | 1000 to 5000 nM | 1000 to 5000 nM |  |  | IEb2 (5% ≤ IEb2 < 10%) | IEb7 (30% ≤ IEb7 < 35%)
4 | Cc1nc2c(F)cc(-c3nc(Nc4ccc(N5CCC(N6CCN(Cc7ccc8c(c7)CN(N7CCC(=O)NC7=O)C8=O)CC6)CC5)cn4)ncc3F)cc2n1C(C)C [GT-06736, 1-(5-((4-(1-(6-((5-fluoro-4-(4-fluoro-1-isopropyl-2-methyl-1H-benzo[d]imidazol-6-yl)pyrimidin-2-yl)amino)pyridin-3-yl)piperidin-4-yl)piperazin-1-yl)methyl)-1-oxoisoindolin-2-yl)dihydropyrimidine-2,4 (1H,3H)-dione] |  |  |  |  |  |  |  | 10 to 50 nM | 100 to 300 nM | 10 to 50 nM | 100 to 300 nM | 50 to 100 nM | B (80%<substrate protein remaining %≤100%) | A (0%≤substrate protein remaining %≤80%) |  | 
